Results taken from the supplement of paper PMC10307832.

Columns and labels:
Assay in all cases: relative viability (nuclei count vs DMSO), 5 days (fraction); higher = more cells survive
XMD14-99 + Navitoclax = compound: CN1CCN(CC1)C2=CC(=C(C=C2)NC3=NC(=C(S3)C(=O)C4=C(C=CC=C4Cl)Cl)N)OC [XMD14-99] + CC1(C)CCC(c2ccc(Cl)cc2)=C(CN2CCN(c3ccc(C(=O)NS(=O)(=O)c4ccc(N[C@H](CCN5CCOCC5)CSc5ccccc5)c(S(=O)(=O)C(F)(F)F)c4)cc3)CC2)C1 [Navitoclax] (partner 0.5 µM)
Method in brief: (§1)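 For relative viability, nuclei counts in treated wells were divided by those in vehicle wells. Lung cancer cell lines had been pin-tool dosed in 1536-well plates the day after seeding and cultured for 5 days, then fixed and stained in one step (final 0.05% Triton X-100, 1% formaldehyde, 1 ug/ml Hoechst) and imaged at 4×. Doses were one drug alone or a fixed anchor-drug dose plus five library-drug doses (not always all listed) in √10 steps, and values are duplicate-plate medians.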

AZD1208 + Phenformin = compound: N[C@@H]1CCCN(c2c(/C=C3\SC(=O)NC3=O)cccc2-c2ccccc2)C1 [AZD1208] + N=C(N)NC(=N)NCCc1ccccc1 [Phenformin] (partner 250 µM)
Method in brief: as §1

XMD14-99 = compound: CN1CCN(CC1)C2=CC(=C(C=C2)NC3=NC(=C(S3)C(=O)C4=C(C=CC=C4Cl)Cl)N)OC [XMD14-99]
Method in brief: (§2)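 Lung cancer cell lines received five library-drug doses (not always all listed) spaced by √10, pinned on vehicle-anchored 1536-well plates after an overnight stay at 37 °C. Five days later, with no medium change, nuclei were Hoechst-stained, imaged at 4× and counted with MetaXpress. Viability is treated-well nuclei relative to vehicle-well nuclei, as a median across plates. Passing plates had control CV below 25% and at least one doubling.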

AZD1208 = compound: N[C@@H]1CCCN(c2c(/C=C3\SC(=O)NC3=O)cccc2-c2ccccc2)C1 [AZD1208]
Method in brief: as §2

Cell Line | relative viability (XMD14-99 + Navitoclax; first compound 0.08 µM) | relative viability (XMD14-99 + Navitoclax; first compound 0.8 µM) | relative viability (XMD14-99 + Navitoclax; first compound 2.53 µM) | relative viability (XMD14-99 + Navitoclax; first compound 8 µM) | relative viability (AZD1208 + Phenformin; first compound 0.08 µM) | relative viability (AZD1208 + Phenformin; first compound 0.253 µM) | relative viability (AZD1208 + Phenformin; first compound 0.8 µM) | relative viability (AZD1208 + Phenformin; first compound 2.53 µM) | relative viability (AZD1208 + Phenformin; first compound 8 µM) | relative viability (XMD14-99; 0.08 µM) | relative viability (XMD14-99; 0.8 µM) | relative viability (XMD14-99; 2.53 µM) | relative viability (XMD14-99; 8 µM) | relative viability (AZD1208; 0.08 µM) | relative viability (AZD1208; 0.253 µM) | relative viability (AZD1208; 0.8 µM) | relative viability (AZD1208; 2.53 µM) | relative viability (AZD1208; 8 µM)
LOU-NH91 | 0.662 | 0.758 | 0.685 | 0.613 | 0.715 | 0.691 | 0.659 | 0.684 | 0.574 | 1.06 | 0.922 | 0.898 | 0.829 | 1.02 | 0.889 | 0.954 | 0.953 | 0.892
NCI-H322M | 1.15 | 1.27 | 1.33 | 1.08 | 0.761 | 0.75 | 0.731 | 0.741 | 0.782 | 0.994 | 0.977 | 0.86 | 0.762 | 0.94 | 0.943 | 0.943 | 0.891 | 1.04
HCC-827 | 1.06 | 0.99 | 0.793 | 0.873 | 0.423 | 0.436 | 0.425 | 0.418 | 0.378 | 1.06 | 0.972 | 0.961 | 0.881 | 1.08 | 1.08 | 1.05 | 1.08 | 1.01
SW 1573 | 0.961 | 1.15 | 1.05 | 0.765 | 0.295 | 0.272 | 0.27 | 0.244 | 0.228 | 0.964 | 0.939 | 1 | 0.834 | 0.822 | 0.899 | 0.799 | 0.807 | 0.696
NCI-H1975 | 1.05 | 1.07 | 1.14 | 1.08 | 0.413 | 0.449 | 0.393 | 0.404 | 0.359 | 0.992 | 0.994 | 0.917 | 0.788 | 1.06 | 1.08 | 0.909 | 1.04 | 0.878
NCI-H1651 | 0.982 | 1.04 | 0.933 | 0.943 | 0.328 | 0.387 | 0.299 | 0.315 | 0.249 | 0.972 | 0.984 | 0.964 | 0.845 | 0.954 | 1.07 | 0.83 | 0.928 | 0.856
NCI-H460 | 1.06 | 1.02 | 1.03 | 0.767 | 0.483 | 0.697 | 0.574 | 0.489 | 0.545 | 1.02 | 0.965 | 0.954 | 0.841 | 0.997 | 1.1 | 0.962 | 0.998 | 1.03
LCLC-97TM1 | 0.43 | 0.455 | 0.268 | 0.382 | 0.358 | 0.498 | 0.429 | 0.447 | 0.335 | 0.982 | 1 | 0.828 | 0.571 | 0.95 | 0.885 | 0.813 | 0.852 | 0.631
NCI-H838 | 1.15 | 1.11 | 1.1 | 0.747 | 0.524 | 0.704 | 0.425 | 0.583 | 0.485 | 0.911 | 0.939 | 0.873 | 0.658 | 0.938 | 0.967 | 0.841 | 0.902 | 0.844
NCI-H1355 | 0.87 | 0.863 | 0.782 | 0.778 | 0.479 | 0.469 | 0.416 | 0.447 | 0.392 | 0.996 | 0.999 | 0.89 | 0.825 | 1.03 | 0.983 | 0.908 | 0.876 | 0.789
HOP-62 | 1.12 | 1.16 | 1.03 | 0.951 | 0.689 | 0.745 | 0.664 | 0.628 | 0.613 | 1.01 | 1 | 0.993 | 0.868 | 1.09 | 1.07 | 0.941 | 1.02 | 0.944
NCI-H2087 | 0.964 | 0.897 | 0.632 | 0.463 | 0.46 | 0.554 | 0.41 | 0.481 | 0.336 | 0.957 | 0.968 | 0.818 | 0.483 | 0.956 | 1.18 | 0.821 | 1.01 | 1.01
